This assay addresses T1, Adenosine deaminase (Bos taurus, UniProt P56658).
T1 sequence (P56658 whole entry): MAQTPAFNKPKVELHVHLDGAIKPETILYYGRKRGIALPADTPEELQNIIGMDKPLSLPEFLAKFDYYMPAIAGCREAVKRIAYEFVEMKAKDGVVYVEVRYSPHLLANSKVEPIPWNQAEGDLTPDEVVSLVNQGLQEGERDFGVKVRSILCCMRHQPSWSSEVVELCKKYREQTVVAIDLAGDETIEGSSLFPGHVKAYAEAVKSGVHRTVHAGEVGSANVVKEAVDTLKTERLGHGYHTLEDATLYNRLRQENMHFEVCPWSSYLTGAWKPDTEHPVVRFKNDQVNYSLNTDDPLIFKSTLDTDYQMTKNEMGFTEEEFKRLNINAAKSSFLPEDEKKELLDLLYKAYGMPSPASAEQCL
Put plainly: Tested for binding affinity against calf intestinal Adenosine Deaminase (ADA).
For `CCCCCC[C@H]([C@H](C)O)n1c(O)nc2c(N)ncnc21`, the Ki was determined as 6.4 nM. Molecule `CCCCCC[C@H]([C@H](C)O)n1cnc2c(N)ncnc21` [(+)-EHNA] yielded a Ki of 0.82 nM. In the case of `CCCCCC[C@H]([C@H](C)O)[N+]1([O-])C(=O)Nc2c(N)ncnc21` (some centres undefined) it was 15.8 nM. With `CCCCCC[C@H]([C@H](C)O)[N+]1([O-])C=Nc2c(N)ncnc21` (some centres undefined), the Ki amounted to 3.8 nM.

For the origin of these results see ChEMBL document CHEMBL1127396, “Adenosine deaminase inhibitors. Synthesis and biological evaluation of putative metabolites of (+)-erythro-9-(2S-hydroxy-3R-nonyl)adenine” (J Med Chem, 1994).
